Data on 2 compounds can be found in US8124788B2, “Spirocyclic cyclohexane compounds with analgesic activity” (Gruenenthal GmbH, priority 2006, dated 2012).

The target in data set [1] is T1, Noradrenaline reuptake (Rattus norvegicus, UniProt Q63380).
T1 construct: synaptosomes are freshly isolated from areas of the rat brain; from tissue; host or cells: P2 synaptosome fraction from the hypothalamus of male rat brains
The experiment in a line: Inhibition of noradrenaline (NA) reuptake in rat brain synaptosomes. Conditions: synaptosomes from rat hypothalamus. The class given is biochemical. As for the experimental part: (§1) In order to be able to carry out these in vitro studies, synaptosomes are freshly isolated from areas of the rat brain. In each case a so-called “P2” fraction prepared in accordance with the instruction of Gray and Whittaker (E. G. Gray and V. P. Whittaker (1962) J. Anat. 76, 79-88) is prepared. For the NA uptake, these vesicular particles are isolated from the hypothalamus of male rat brains.
(§2) A detailed description of the method can be found in the literature (M. Ch. Frink, H.-H. Hennies, W. Englberger, M. Haurand and B. Wilffert (1996) Arzneim.-Forsch./Drug Res. 46 (III), 11, 1029-1036).

In data set [2] the target is T2, Serotonin reuptake (Rattus norvegicus, UniProt P31652).
T2 construct: synaptosomes are freshly isolated from areas of the rat brain; from tissue
T2 sequence (P31652 whole entry): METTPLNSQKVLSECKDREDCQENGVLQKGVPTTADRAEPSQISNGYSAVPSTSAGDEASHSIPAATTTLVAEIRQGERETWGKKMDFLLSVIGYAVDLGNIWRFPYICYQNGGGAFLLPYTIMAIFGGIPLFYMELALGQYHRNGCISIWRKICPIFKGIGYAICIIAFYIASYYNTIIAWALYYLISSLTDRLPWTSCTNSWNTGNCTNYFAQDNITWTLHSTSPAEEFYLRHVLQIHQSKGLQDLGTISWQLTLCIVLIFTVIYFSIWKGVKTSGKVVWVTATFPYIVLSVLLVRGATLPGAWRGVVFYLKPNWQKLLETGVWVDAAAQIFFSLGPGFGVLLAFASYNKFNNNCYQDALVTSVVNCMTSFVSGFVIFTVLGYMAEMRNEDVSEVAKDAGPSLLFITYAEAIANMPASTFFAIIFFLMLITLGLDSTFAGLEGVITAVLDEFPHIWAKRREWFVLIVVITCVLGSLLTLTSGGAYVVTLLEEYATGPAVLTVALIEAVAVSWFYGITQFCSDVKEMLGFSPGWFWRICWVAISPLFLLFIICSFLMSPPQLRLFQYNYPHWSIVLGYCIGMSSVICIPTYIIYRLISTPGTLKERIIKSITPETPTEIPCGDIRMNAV
The experiment in a line: Inhibition of serotonin (5HT) reuptake in rat brain synaptosomes. The class given is biochemical. As for the experimental part: as §1, §2

For data set [3], the target named is T3, human μ opiate receptor (Homo sapiens, UniProt P35372).
T3 construct: purchased PerkinElmer Life Sciences, Zaventem, Belgium RB-HOM; host or cells: CHO-K1 cells (recombinant expression)
T3 sequence (P35372 whole entry): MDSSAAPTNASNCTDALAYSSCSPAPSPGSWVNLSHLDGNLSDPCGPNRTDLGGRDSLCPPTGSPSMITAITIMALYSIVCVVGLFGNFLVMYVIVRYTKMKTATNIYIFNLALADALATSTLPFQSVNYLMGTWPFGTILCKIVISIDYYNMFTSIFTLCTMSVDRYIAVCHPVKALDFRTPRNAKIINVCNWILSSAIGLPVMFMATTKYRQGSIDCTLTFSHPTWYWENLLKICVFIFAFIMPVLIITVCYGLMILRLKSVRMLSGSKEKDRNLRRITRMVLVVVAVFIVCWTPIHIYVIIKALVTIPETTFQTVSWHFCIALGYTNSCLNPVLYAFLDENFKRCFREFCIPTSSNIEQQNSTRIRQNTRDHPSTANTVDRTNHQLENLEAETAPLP
The experiment in a line: Affinity for the human μ opiate receptor ([3H]-naloxone displacement, CHO-K1 membrane preparation, SPA). The following applies: for inhibition at 1 µM: 1 μM test substance, displacement of [3H]-naloxone, read-out: μ opioid receptor [1 μM], % inhibition; for Ki: Cheng-Prusoff conversion from IC50, read-out: μ opioid receptor, Ki. The class given is binding. An outline of the steps:
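CHO-K1 membranes expressing human μ receptor (15-40 μg protein/250 μl) were incubated 90 min at room temperature with 1 nmol/l [³H]-naloxone and WGA-SPA beads in 50 mmol/l Tris-HCl with 0.06% BSA; 100 μmol/l naloxone defined nonspecific binding. Percent displacement measured at 1 μmol/l; IC50 converted to Ki via Cheng-Prusoff.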
(In a radioligand displacement assay an active substance lowers the binding of a labelled ligand.)

Molecules are shown by their SMILES.

T1 sequence (Q63380 1-617): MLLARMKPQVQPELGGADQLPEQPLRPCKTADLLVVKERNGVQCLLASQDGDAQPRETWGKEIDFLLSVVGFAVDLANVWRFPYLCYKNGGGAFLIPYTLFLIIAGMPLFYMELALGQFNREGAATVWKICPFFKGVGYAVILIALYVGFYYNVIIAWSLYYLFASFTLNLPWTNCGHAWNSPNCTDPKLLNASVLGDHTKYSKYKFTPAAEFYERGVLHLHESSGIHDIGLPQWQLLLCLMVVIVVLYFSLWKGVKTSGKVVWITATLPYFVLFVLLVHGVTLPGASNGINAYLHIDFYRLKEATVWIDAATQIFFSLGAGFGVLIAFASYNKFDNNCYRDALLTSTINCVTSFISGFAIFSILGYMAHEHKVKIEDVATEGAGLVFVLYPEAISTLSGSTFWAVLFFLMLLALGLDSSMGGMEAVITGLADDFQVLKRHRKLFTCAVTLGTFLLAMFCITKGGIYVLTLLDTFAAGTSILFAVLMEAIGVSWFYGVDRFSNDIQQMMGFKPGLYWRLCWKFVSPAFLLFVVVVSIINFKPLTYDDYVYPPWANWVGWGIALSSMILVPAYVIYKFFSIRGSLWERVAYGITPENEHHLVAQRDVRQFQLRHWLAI

A word on the melting point: it is the temperature of the solid-liquid transition. A word on the inhibition: it is the share of the control response that was lost under treatment. As usually defined, the Ki is the equilibrium dissociation constant of an inhibitor or competing ligand from its target. The compound `CN(C)C(c1cccc(F)c1)C1CCC2(CC1)NCCc1c2[nH]c2ccccc12` (stereo not shown) [Compound 18, 1,1-[3-(Dimethylamino-(3-fluorophenyl)methyl)-pentamethylene]-3,4-dihydro-1H-2,9-diazafluorene] returned a melting point of 226 to 229 °C. The same compound gave an inhibition at 10 µM in data set [1] of 58%. Moreover, in data set [2], at 10 µM the inhibition was 64%. Besides, in data set [3], the inhibition at 1 µM is 74% and the inhibitory constant (Ki) is 260 nM.
`CN(C)C(c1ccccc1)C1CCC2(CC1)NCCc1c2[nH]c2ccccc12` (stereo not shown) [Compound 19, 1,1-[3-(Dimethylamino-phenylmethyl)-pentamethylene]-3,4-dihydro-1H-2,9-diazafluorene] registered a melting point of 182 to 184 °C. The compound further showed an inhibition at 10 µM in data set [1] of 65%. The inhibition at 10 µM in data set [2] stood at 91%. Also, in data set [3], the inhibition at 1 µM came out at 81% and the Ki was found to be 180 nM.
